Assay results from PubChem BioAssay (NCI).
Where “and” joins values, the source holds several entries; their conditions need not be identical. Identical values can stand only once.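 Results reflect a 48-hour exposure of cells in 96-well plates to compound at five concentrations. GI50: concentration for 50% inhibition of growth. TGI denotes the concentration required for complete inhibition of growth.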

Tests used:
Test in all cases: inhibition of tumour cell growth, NCI panel, 48 h
A498 renal = tested on: A498 renal
A549 NSCLC = tested on: A549 NSCLC
HCT-116 colon = tested on: HCT-116 colon
HT29 colon = tested on: HT29 colon
M14 melanoma = tested on: M14 melanoma
SF-268 CNS = tested on: SF-268 CNS
SF-539 CNS = tested on: SF-539 CNS
SK-MEL-5 melanoma = tested on: SK-MEL-5 melanoma
SNB-75 CNS = tested on: SNB-75 CNS
U251 CNS = tested on: U251 CNS

Structure (SMILES)	GI50 (A498 renal)	TGI (A498 renal)	GI50 (A549 NSCLC)	TGI (A549 NSCLC)	GI50 (HCT-116 colon)	TGI (HCT-116 colon)	GI50 (HT29 colon)	TGI (HT29 colon)	GI50 (M14 melanoma)	TGI (M14 melanoma)	GI50 (SF-268 CNS)	TGI (SF-268 CNS)	GI50 (SF-539 CNS)	TGI (SF-539 CNS)	GI50 (SK-MEL-5 melanoma)	TGI (SK-MEL-5 melanoma)	TGI (SNB-75 CNS)	GI50 (U251 CNS)	TGI (U251 CNS)	GI50 (SNB-75 CNS)
CC(C)(C)c1cc(NC(=O)Cc2ccc(-c3cnc4cc(-c5cnn(CCN6CCOCC6)c5)ccc4n3)cc2)no1	0.0663 µM and 0.0152 µM	0.425 µM and 0.0791 µM	0.335 µM and 0.506 µM and 0.108 µM	50 µM and > 100 µM and > 3 µM	0.226 µM and 0.417 µM and 0.0705 µM	50 µM and > 100 µM and > 3 µM	0.613 µM and 1.06 µM and 0.116 µM	50 µM and > 100 µM and > 3 µM	0.202 µM and 0.37 µM and 0.0419 µM	50 µM and > 100 µM and > 3 µM	0.413 µM and 0.468 µM and 0.0781 µM	50 µM and > 100 µM and > 3 µM	0.0878 µM and 0.236 µM and 0.344 µM	3.68 µM and 3.05 µM and > 3 µM	0.612 µM and 0.674 µM and 0.232 µM	50 µM and 11.3 µM and > 0.95 µM	4.39 µM and 38.4 µM and > 3 µM	0.337 µM and 0.456 µM and 0.0964 µM	50 µM and > 100 µM and > 3 µM	–
CCCS(=O)(=O)/C(=C(\c1ccc(Br)cc1)S(=O)(=O)CCC)c1ccc(Br)cc1	–	> 10 µM	–	> 10 µM	–	> 10 µM	–	> 10 µM	–	> 10 µM	–	> 10 µM	–	> 10 µM	–	> 10 µM	> 10 µM	–	> 10 µM	–
COc1ccc2nc3cc(Cl)ccc3c(NCCN)c2c1	11.7 µM	23.9 µM	–	–	–	–	–	–	1.82 µM	3.44 µM	–	–	–	–	–	–	–	1.71 µM	3.09 µM	–
CCCCCN(CCCCC)CC(O)c1ccc(Cl)c2ccccc12 (stereo unspecified)	10.3 µM	29.3 µM	14.2 µM	34 µM	2.13 µM	13.1 µM	2.24 µM	20.6 µM	4.51 µM	18.7 µM	13.5 µM	30.1 µM	–	–	8.39 µM	20.8 µM	35.8 µM	12.3 µM	28.6 µM	11.7 µM
CO[C@H]1C=C[C@@]23c4cc5c(cc4CO[C@]2(O)CN(C)[C@H]3C1)OCO5	–	> 100 µM	–	> 100 µM	–	> 100 µM	–	> 100 µM	–	> 100 µM	–	> 100 µM	–	> 100 µM	–	> 100 µM	> 100 µM	–	> 100 µM	–
CC(=O)O.[Au].c1ccc([PH+](c2ccccc2)c2ccccc2)cc1	–	–	18.8 µM	66.1 µM	1.72 µM	3.2 µM	11.5 µM	32.5 µM	1.39 µM	2.77 µM	3.05 µM	11.5 µM	8.6 µM	23.2 µM	1.26 µM	2.9 µM	20.5 µM	2.57 µM	7.49 µM	8.1 µM
C/C=C1/C(=C/c2[nH]c(/C=c3\[nH]/c(=C/C4=NC(=O)C(CC)=C4C)c(C)c3CCC(=O)O)c(CCC(=O)O)c2C)NC(=O)C1C (stereo unspecified)	> 150 µg/mL	> 150 µg/mL	> 150 µg/mL	> 150 µg/mL	> 150 µg/mL	> 150 µg/mL	–	–	> 150 µg/mL	> 150 µg/mL	> 150 µg/mL	> 150 µg/mL	> 150 µg/mL	> 150 µg/mL	> 150 µg/mL	> 150 µg/mL	> 150 µg/mL	> 150 µg/mL	> 150 µg/mL	> 150 µg/mL
COC(=O)C(=O)C(C(=O)C=C(C)C)C(=O)C(=O)Nc1ccc(C)cc1C (stereo unspecified)	–	> 100 µM	–	> 100 µM	–	> 100 µM	–	> 100 µM	–	> 100 µM	–	> 100 µM	–	> 100 µM	–	> 100 µM	> 100 µM	–	> 100 µM	–
Cc1ccc(NC(=O)c2sc3nc(C)c(C(O)c4ccccc4)cc3c2N)cc1 (stereo unspecified)	0.233 µM	1.04 µM	0.64 µM	32.7 µM	0.381 µM	12.2 µM	0.358 µM	14.8 µM	0.284 µM	26.1 µM	2.47 µM	> 100 µM	0.287 µM	1.3 µM	0.417 µM	> 41.8 µM	13.6 µM	0.384 µM	22.4 µM	0.245 µM
c1cc[c]([Pb]([c]2ccccc2)[c]2ccccc2)cc1	16 µM	46.2 µM	60 µM	> 100 µM	10.5 µM	27.1 µM	16.4 µM	49.6 µM	14.2 µM	47.4 µM	7.34 µM	50.7 µM	14.2 µM	43.2 µM	12.3 µM	32.6 µM	45 µM	11.3 µM	23.9 µM	6.8 µM
CN(C)C(c1ccccc1)C(O)c1ccccc1 (stereo unspecified)	–	> 100 µM	–	> 100 µM	–	–	–	> 100 µM	–	> 100 µM	–	> 100 µM	–	> 100 µM	–	–	> 100 µM	–	> 100 µM	–
Cn1c2ccccc2c2c3[nH]c(=O)[nH]c(=O)c3c3c4ccccc4n(C)c3c21	0.0475 µM	4.37 µM	2.86 µM	> 100 µM	2.37 µM	12.9 µM	–	–	2.43 µM	> 100 µM	3.12 µM	15.6 µM	1.78 µM	6.61 µM	–	–	3.27 µM	3.02 µM	13 µM	1.49 µM
N#CCC(=O)NC1C2CC3CC(C2)CC1C3 (stereo unspecified)	–	30.2 µM	–	> 100 µM	–	29.2 µM	–	33.1 µM	–	41.6 µM	–	35.7 µM	–	32.3 µM	–	27.9 µM	33.5 µM	–	29.8 µM	–
CC[C@H](C)[C@H]1O[C@]2(C=C[C@@H]1C)C[C@@H]1C[C@@H](C/C=C(\C)[C@@H](O[C@H]3C[C@H](OC)[C@@H](O[C@H]4C[C@H](OC)[C@@H](NC)[C@H](C)O4)[C@H](C)O3)[C@@H](C)/C=C/C=C3\CO[C@@H]4[C@H](O)C(C)=C[C@@H](C(=O)O1)[C@]34O)O2	2.68 µM	11.6 µM	2.01 µM	6.38 µM	2 µM	5.12 µM	1.88 µM	4.14 µM	1.93 µM	3.98 µM	3.9 µM	16 µM	1.81 µM	3.37 µM	1.8 µM	3.2 µM	8.44 µM	1.91 µM	4.07 µM	1.93 µM
C/C(=N\Nc1ccc(Cl)cn1)c1ccccn1	0.174 µM	1.05 µM	0.364 µM	> 100 µM	0.0201 µM	> 33.8 µM	< 0.0419 µM	> 59.9 µM	–	–	0.213 µM	> 73.2 µM	0.229 µM	3.49 µM	0.343 µM	5.48 µM	> 76.2 µM	0.218 µM	> 100 µM	0.208 µM
